How the values were obtained:
[1] = test system: larval per3-luc zebrafish; experiment: In vivo luminescence rhythms in per3-luc zebrafish; settings: up to 9 µM
Protocol: The per3-luc transgenic line was obtained from Zebrafish International Resource Center. Hemizygote larval fish were entrained in 12 h light/12 h dark cycles from day 3 to 6 postfertilization. They were then placed in an individual well of a 96-well white solid-bottom plate with 180 µl of E3 solution (5 mM NaCl, 0.17 mM KCl, 0.33 mM CaCl2, and 0.33 mM MgSO4, pH 7.0) containing 0.5 mM luciferin, 0.013% Amquel Plus Instant Water Detoxifier (Kordon brand; Novalek, Hayward, California, United States), and various concentrations of longdaysin (final 0.1% DMSO). The plate was covered with optically clear film, and the luminescence was recorded every 36 min by using the Tecan luminometer at 25°C. The period parameter was obtained from the luminescence rhythm by using MultiCycle software.

CKIα = CKIα (Homo sapiens, UniProt P48729); experiment: In vitro kinase assay, CKIα; assay type: biochemical; parameters: purchased Invitrogen PV3850; settings: ATP 5 µM; from Figure 2E
Protocol: (§1) The CKIδ, CKIα, CDK7, and ERK2 kinase assays were performed on 384-well plates (10 µl volume). The reaction mixture was as follows: for CKIδ, 2 ng/µl CKIδ (Millipore, 14-520), 50 µM peptide substrate RKKKAEpSVASLTSQCSYSS corresponding to human PER2 Lys659-Ser674 [47], and CKI buffer (40 mM Tris, 10 mM MgCl2, 0.5 mM DTT, 0.1 mg/ml BSA, pH 7.5); for CKIα, 1 ng/µl CKIα (Invitrogen, PV3850), 50 µM CKI peptide substrate (Anaspec, 60547-1), and CKI buffer; for CDK7, 5 ng/µl CDK7 (Millipore, 14-476), 100 µM Cdk7/9 peptide substrate (Millipore, 12-526), and CKI buffer; for ERK2, 1.5 ng/µl ERK2 (Millipore, 14-550), 0.8 µg/µl MBP (Millipore, 13-104), and ERK buffer (50 mM Tris, 10 mM MgCl2, 0.5 mM DTT, 1 mM EGTA, pH 7.5). Five hundred nl of compound was added to the mixture (final 5% DMSO), and the reaction was started by adding ATP (final 5 µM). After incubation at 30°C for 3h, 10 µl of Kinase-Glo Luminescent Kinase Assay reagent (Promega) was added, and the luminescence was detected to determine remaining ATP amount. […] IC50 value was obtained by using Prism software (GraphPad Software).

[2] = test system: CKIα- and CKIδ-dependent mobility-shift of PER1; experiment: PER1 electrophoretic mobility-shift (phosphorylation) in HEK293T cells; assay type: cell-based; settings: 10 or 20 µM, 24 h
Protocol: HEK293T cells (1.25×10^6 cells) were reverse transfected on 6-well plates by Lipofectamine 2000 with 1 µg each of expression vectors for C-terminally 3XFlag-tagged clock protein (in p3XFLAG-CMV-14, Sigma) and N-terminally HA-tagged kinase (in p3XFLAG-CMV-14). For ERK2, 0.05 µg of expression vector with 0.95 µg of empty vector was used because of its efficient expression. After 24 h, the cells were collected with ice-cold PBS and suspended in 100 µl of incubation buffer [50 mM Tris, 50 mM NaCl, 2 mM EDTA, 10% glycerol, 1 mM DTT, Complete Protease Inhibitor Cocktail (Roche), Phosphatase Inhibitor Cocktail 1 and 2 (Sigma), pH 8.0]. The mixture was supplemented with NP-40 (final 1%) and incubated on ice for 15 min, followed by centrifugation (16,000×g) at 4°C for 10 min. […] The bound proteins were eluted with SDS sample buffer, separated by SDS-PAGE (4%–12% gradient gel), and analyzed by Western blotting with anti-Flag antibody (Sigma, F1804) or anti-HA antibody conjugated with HRP (Roche, 12013819001). For the analysis of PER1 electrophoretic mobility-shift, the cell extracts were separated by SDS-PAGE (3%–8% gradient gel, Invitrogen) and analyzed by Western blotting with anti-Flag antibody or anti-α-tubulin antibody (Santa Cruz Biotechnology, sc-32293). Protein concentration of each sample was measured by the Lowry method using DC protein assay (BioRad).

CKIδ = CKIδ (Homo sapiens, UniProt P48730); experiment: In vitro kinase assay, CKIδ; assay type: biochemical; parameters: purchased Millipore 14-520; settings: ATP 5 µM; from Figure 2E
Protocol: as §1

Bmal1-dLuc U2OS cells = experiment: Cytotoxicity in the U2OS circadian assay; assay type: cell-based, human
Protocol: The compound screen was done with the high-throughput circadian assay system as described previously. In brief, Bmal1-dLuc U2OS cells were suspended in the culture medium (DMEM supplemented with 10% fetal bovine serum, 0.29 mg/ml L-glutamine, 100 units/ml penicillin, and 100 µg/ml streptomycin) and plated onto 384-well white solid-bottom plates at 20 µl (2,000 cells) per well. After 2 d, 50 µl of the explant medium (DMEM supplemented with 2% B27, 10 mM HEPES, 0.38 mg/ml sodium bicarbonate, 0.29 mg/ml L-glutamine, 100 units/ml penicillin, 100 µg/ml streptomycin, 0.1 mg/ml gentamicin, and 1 mM luciferin, pH 7.2) was dispensed to each well, followed by the application of 500 nl of compounds (dissolved in DMSO; final 0.7% DMSO). The plate was covered with an optically clear film and set to luminescence monitoring system equipped with a CCD imager (ViewLux, Perkin Elmer). The luminescence was recorded every 2 h for 3–4 days. In follow-up studies, the luminescence was recorded every 100 min by using a microplate reader (Infinite M200, Tecan). The period parameter was obtained from the luminescence rhythm by curve fitting program CellulaRhythm or MultiCycle (Actimetrics), both of which gave similar results.

lung explants = experiment: Circadian period in lung explants from mPer2Luc knockin mice; assay type: cell-based, mouse; settings: 0 to 9 µM
Protocol: Explants of lung and SCN were dissected from mPer2^Luc knockin mice and cultured in explant medium as described previously. The medium was changed every week with increasing concentration of longdaysin each time (from 0 to 9 µM, final 0.7% DMSO). The luminescence was recorded every 10 min with LumiCycle luminometer (Actimetrics), and the period parameter was obtained by using LumiCycle Analysis software (Actimetrics).

embryonic fibroblasts = experiment: Circadian period in embryonic fibroblasts from CKIδ deficient mPer2Luc knockin mice; assay type: cell-based, mouse
Protocol: (§2) Luminescence rhythms of adult tail fibroblasts and embryonic fibroblasts from mPer2^Luc knockin mice were analyzed similarly to U2OS cells, except that 1,800 cells were plated per well. Because of the low luminescence intensity of the fibroblasts, the higher sensitivity ViewLux imager was used for rhythm recording.

adult tail fibroblasts = experiment: Circadian period in adult tail fibroblasts from mPer2Luc knockin mice; assay type: cell-based, mouse
Protocol: as §2

Sequence of CKIα (P48729 whole entry): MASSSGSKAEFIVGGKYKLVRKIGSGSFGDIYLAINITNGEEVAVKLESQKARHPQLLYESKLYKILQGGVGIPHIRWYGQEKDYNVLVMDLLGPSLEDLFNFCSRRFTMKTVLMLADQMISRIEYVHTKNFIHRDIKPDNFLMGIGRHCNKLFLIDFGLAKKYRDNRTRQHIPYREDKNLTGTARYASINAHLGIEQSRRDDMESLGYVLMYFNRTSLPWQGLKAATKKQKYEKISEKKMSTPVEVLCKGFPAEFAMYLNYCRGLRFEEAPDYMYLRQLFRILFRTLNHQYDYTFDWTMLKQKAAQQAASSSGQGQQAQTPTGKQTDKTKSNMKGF
Sequence of CKIδ (P48730 whole entry, species assumed): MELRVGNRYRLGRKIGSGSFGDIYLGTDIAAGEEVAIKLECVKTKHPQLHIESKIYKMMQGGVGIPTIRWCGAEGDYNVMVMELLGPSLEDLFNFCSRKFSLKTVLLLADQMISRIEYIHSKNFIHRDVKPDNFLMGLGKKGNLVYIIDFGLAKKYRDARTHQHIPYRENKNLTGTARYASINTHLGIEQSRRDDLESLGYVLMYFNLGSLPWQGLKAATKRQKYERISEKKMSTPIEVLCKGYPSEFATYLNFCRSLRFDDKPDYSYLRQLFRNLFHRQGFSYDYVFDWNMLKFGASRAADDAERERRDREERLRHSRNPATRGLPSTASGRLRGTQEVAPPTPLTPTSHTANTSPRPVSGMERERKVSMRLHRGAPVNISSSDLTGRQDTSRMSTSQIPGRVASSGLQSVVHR

In the case of `CC(C)n1cnc2c(NCc3cccc(C(F)(F)F)c3)ncnc21` [Longdaysin, 9-isopropyl-N-(3-(trifluoromethyl)benzyl)-9H-purin-6-amine], the “Effect on body size” value ([1]; 1 wk treatment) is reported as “without affecting body size”, the “Period lengthening in vivo” value ([1]; per3-luc reporter fish, constant darkness) is reported as > 10 h and the IC50 (CKIα) is reported as 5.6 µM. For the same molecule, the “Effect on CKIα- and CKIδ-dependent mobility-shift of PER1” value [2] was “reduced the CKIα- and CKIδ-dependent mobility-shift of PER1”, the IC50 (CKIδ) was 8.8 µM and the Concentration showing cytotoxicity (Bmal1-dLuc U2OS cells) was 71 µM. For the same molecule, the “Effect on circadian period” value (lung explants) was “dose-dependent period lengthening”, the “Effect on circadian period” value (embryonic fibroblasts; CKIδ deficient (CKIδΔ2/Δ2) cells) was “lengthened the period in a dose-dependent manner” and the “Effect on circadian period” value (embryonic fibroblasts; wild type (CKIδ+/+) cells) was “lengthened the period in a dose-dependent manner”. For the same molecule, the “Effect on circadian period” value (adult tail fibroblasts) was “dose-dependent period lengthening”.
